Measurements published in patent publication US20080027088A1, “Imidazole-Based Hmg-Coa Reductase Inhibitors” (Warner-Lambert Company, LLC, priority 2004, published 2008).

Legend:
Format in all cases: in vivo
[1] = system: ApoE KO mice fed a Western diet; assay: Plasma lipoprotein cholesterol distribution by FPLC, 12 weeks; details: 0.3 mg/kg/day
Method: Animal experiments—Male C57BI/6J and ApoE KO mice on C57BI/6J background were obtained from the Jackson Laboratory (Bar Harbor, Me.) or Taconic (Germantown, N.Y.) (Plaque formation in ApoE KO mice is lipid-driven (A. S. Plump et al., Cell. 1992;71 (2):343-53)). Myriocin was mixed with Western diet containing 0.21% cholesterol and 21% fat. 8-12-week-old mice received 0.3 mg myriocin/kg/day for 12 weeks (Table 1). 10-12 week-old ApoE KO mice (n=8) were pre-fed a western diet for 2 weeks and mice received various concentrations of myriocin for 4 weeks in diet admix. Control groups consisted of ApoE KO mice fed normal chow or Western diet without myriocin, and normal chow-fed C57BI/6J mice. Body weight and chow feeding was measured every week to examine the food consumption. For the femoral artery cuff model, 8-10 week-old male ApoE KO mice were anethetized and the right femoral artery was dissected from its surroundings. A nonconstrictive polyethylene cuff (Portex, 0.40-mm inner diameter, 0.80-mm outer diameter, and 1.5-mm length) was placed looselyaround the right femoral artery.
Plasma lipids and serum amyloid A measurement—Mice were sacrificed by CO2 inhalation and blood was collected through cardiac puncture. Plasma concentrations of total cholesterol and triglyceride were determined enzymatically on a Cobas Mira Plus auto-analyzer using Cholesterol R1 and Triglycerides Reagent methods, respectively (Roche Diagnostics, Indiana, USA). Colormetric changes were measured at 500 nm. Lipoproteins were separated from mouse plasma by fast-protein liquid chromatography utilizing a Superose 6HR column. Cholesterol distribution among lipoproteins was determined by in-line post column analysis (K. A. Kieft, T. M. Bocan and B. R. Krause, J. Lipid Res. 1991; 32:859-66). Serum Amyloid A (SAA) protein in plasma was measured by ELISA according to the manufacturer's instructions (Biosource).
FIG. 6. Plasma Lipoprotein Distribution of ApoE KO Mice Fed a Western Diet. After 12 weeks of diet admix myriocin treatment (0.3 mg/kg/day), mice were sacrificed and plasma was isolated for lipoprotein composition. βVLDL (A), LDL (B) and HDL (C) Lipoproteins were separated from mouse plasma by fast-protein liquid chromatography (FPLC) utilizing a Superose 6HR column. Cholesterol distribution among lipoproteins was determined by in-line post column analysis (Kieft, K. A., T. M. A. Bocan, B. R. Krause, J. Lipid Res. 1991, 32:859-866.). The values reported are mean±SEM (n=5, *P<0.01, Western diet vs other study groups; n=5, #P<0.05, Western diet plus myriocin vs normal chow).

[2] = system: ApoE KO mice fed a Western diet; assay: Plasma SM/PC ratio (HPLC) and ceramide (LC/MS/MS), 12 weeks; details: 0.3 mg/kg/day
Text: Analysis of Sphingolipids and Phospholipids by LC/MS and HPLC-Total lipids were extracted by the modified method of Bligh-Dyer extraction (E. G. Bligh and W. J. Dyer, Can. J. Med. Sci. 1959;37:911-917; and D. K. Perry, A. Bielawska and Y. A. Hannun, Methods Enzymol. 2000;312:22-31). A Micromass (Waters Corp., Milford, Mass.) Quattro Ultima tandem quadrupole mass spectrometer with a standard Z-sprayTM ion source, set to electrospray positive ionization mode, with MassLynxTM version 3.5 operating software, was used for all quantitative determinations. Source conditions were typically as follows: capillary 3.5 kV, source temperature 110 degrees C., and desolvation temperature 325 degrees C. […] The following ion transitions were used for quantification: sphingomyelin (704→184 m/z), sphinganine (302→284 m/z), ceramide (566→264 m/z) and psychosine (462→282 m/z) as an internal standard. […] For the quantitative method, the analytical column was a Phenomenex (Torrance, Calif.) Polar-RP (2.0×150 mm, 4 μm) with a […] […] Lipid extracts were analyzed by HPLC and evaporative light scattering detector to determine plasma sphingomyelin and phosphatidylcholine (PC) levels (R. Homan and M.K. Anderson, J. Chromatogr. B. Biomed. Sci. Appl. 1998;708:21-6). […] Plasma concentrations of SM and PC were determined, and SM/PC ratio (FIG. 13A) was calculated using HPLC. […]

[3] = system: ApoE KO mice fed a Western diet; assay: Incorporation of T lymphocytes into lesion of aortic root; details: 12 weeks
Method: For histological analysis, the mice were perfused and fixed in Zinc-Tris fixative. Paraffin embedded sections were stained with Masson's Trichrome. Intimal macrophages were immunohistochemically stained using MAC-2 antibody (clone M3/38 from Cedarlane Laboratories Limited) counterstained with Verhoeff elastic stain. T-lymphocytes were immunohistochemically stained with rat CD3 antibody (clone CD3-12, Serotec). Lesion thickness and area occupied by macrophages were determined using Image Pro Plus software. FIG. 14. Incorporation of T lymphocytes into lesion of aortic root. Cross section of aortic root was stained by rat CD3 antibody and developed by diaminobenzidine (brown color) to detect incorporated T lymphocytes. Sections were counterstained with Harris hematoxylin (blue). T-lymphocyte incorporation was quantified by measuring number of intimal T lymphocytes in aortic root (FIG. 14). Values are mean±SEM (n=5; *P<0.05, Western diet vs standard chow; #P<0.05, Western diet plus myriocin vs standard chow). Bar represents 50 μm.

[4] = vs Western diet-fed ApoE KO mice

## CCCCCCC(=O)CCCCCC/C=C/C[C@@H](O)[C@H](O)[C@@](N)(CO)C(=O)O [myriocin]
[1]; comparable to standard chow-fed group
  plasma apoB levels: lowered
[1]; [4]
  HDL-cholesterol content increased: 54%
  LDL-cholesterol lowered: 35%
  βVLDL-cholesterol lowered: 51%
[2]
  plasma ceramide levels reduced: 60%
[2]; vs Western diet-fed group
  effect on plasma SM/PC ratio: did not affect
[3]
  accumulation of T cells in lesion of aortic root: not affected
